Where two headings read alike, the source gives them in different places.
Experiments:
[1] = tested on: human neonatal skin fibroblasts; conditions: for Lysis following bacterial stress at 48 h (OD490 nm): LDH release
Protocol: The medium was changed every two days by 37° C. preheated fresh medium.

[2] = Comparative stability towards basic conditions (NaOD in D2O), 1H NMR; type: physicochemical
Protocol: In a first set of experiments (experiments 1 to 7 in table 9), X (10 mg, 1.72 10^−2 mmol) was reacted with 2 to 8 equivalents of NaOD in a total volume of 355 μL of deuterium oxide ([X]=4.8 10^−2 mmol·mL^−1) during 2 h 30 before being acidified with 1M DCl in D2O. To be sure that all compounds in solution are in their acidic form, the equivalents of DCl are adjusted to 3 more equivalents of DCl than the amount required to neutralize the solution (nDCl=nNaOD+3). The volume was adjusted to 544 μL with deuterium oxide.
In a second set of experiments (experiments 8 to 14 in table 9), 17 (10 mg, 1.66 10^−2 mmol) was reacted with 2 to 8 equivalents of NaOD in a total volume of 343 μL of deuterium oxide ([17]=4.8 10^−2 mmol·mL^−1) during 2 h 30 before being acidified with 1M DCl in D2O. To be sure that all compounds in solution are in their acidic form, the equivalents of DCl are adjusted to 3 more equivalents of DCl than the amount required to neutralize the solution (nDCl=nNaOD+3). The volume was adjusted to 526 μL with deuterium oxide.
^1H NMR analyses were performed on each experiment. It is why experiments were realized in deuterium oxide and using 1M NaOD in D2O as base and 1M DCl in D2O as acid.
^1H NMR allows indeed the determination of the amount of compound X1 formed, by comparison between the integration corresponding to the methylene group of the lysine side chain connected to the nitrogen atom in X (CH2NGP) (3.3 ppm) and the integrationof the same methylene group in X1 (CH2Lys hydrolyzed) (3.0 ppm).
To confirm the structure of compounds X1 and X2, resulting from hydrolysis of X, the following experiment was realized, in which X (10 mg, 1.72 10^−2 mmol) was reacted with 8 equivalents of NaOD in a total volume of 355 μL of deuterium oxide ([X]=4.8 10^−2 mmol·mL^−1) during 3 days before being acidified with 1M DCl in D2O. In these conditions, almost the totality of compound X is hydrolyzed, the percentage of hydrolysis of compound X being 85% as determined by ^1H NMR as evidence in table 11.

[3] = tested on: neonatal skin fibroblasts (CCD-27SK, ATCC CRL-1475); conditions: for Percentage of viability: 5 mg/mL in serum free medium
Protocol: II-1. Effect of Glycopeptide 17 on the Preservation/Protection of Neonatal Skin Fibroblasts Under Starvation Conditions. Evaluation by Trypan Blue Exclusion Method.
• The neonatal skin fibroblasts (Cell line: CCD-27SK, ATCC number CRL-1475) were grown with DMEM medium supplemented with Fetal Bovine Serum 10% final, antibiotics (Penicillin/Streptomycin) 1% final and Amphotericin B 0.1% final. • Fibroblasts were grown in 75 cm^2 culture flask to 80% confluence, in 37° C. and 10% CO2 incubator. The medium was changed every two days by 37° C. preheated fresh medium. Starvation Medium • This medium was composed of 45% subculturing medium without Fetal Bovine Serum mixed with 55% of Phosphate Buffer Saline 1× containing EDTA (final concentration of 0.45 mM). This was referred to as serum-free medium. Product Preparation • Compound 17 (MM=603.4 g/mol) was diluted in starvation medium to 5 mg/ml final and pH was adjusted at 7.4 by addition of NaOH 1N. General Experimental Procedure Assays on 96 Well Plates • Fibroblast cells were concentrated to 2.10^5 cells/ml and 100 μl of cell suspension was added in wells of a 96-well plate and incubated in 37° C. and 10% CO2 incubator for 4 hours. • After cell adhesion the medium was changed and plates were incubated (37° C.-10% CO2) to perform the assay as follow: • One plate for each sampling times: D0, D3, D4, D5, D6, D7, D10, D12 days • Three wells for each condition (triplicate count) added with 120 μl of culture medium (surviving control), starvation medium (serum-free control) or compound 17 solution at 5 mg/ml. […] So, only the dead cells are blue at microscopic observation. • For sampling, 110 μl of Trypan Blue (SIGMA T8154) was added to 110 μl of trypsinated cell suspension of matching well for counting. • […] of the trypan blue/cell mixture are dropped to a hemacytometer. Cells are counting by using a Neubauer-counting chamber. The unstained (viable) and stained (nonviable) cells are counted separately on 9 areas of 1 mm^2 forming a large square of 9 mm^2 and added to obtain the total number of cells per sample. An average of three counts was used to calculate the viability percentage as: [Number of viable cells/total number of cells]*100 • The cell viability percentages from cultures under starvation conditions were compared with control culture for several days after their addition (D0, D3, D4, D5, D6, D7, D10, D12).

For `C[C@H](NC(=O)[C@H](C)NC(=O)[C@@H](N)CCCCNCC(F)(F)C1(O)O[C@H](CO)[C@H](O)[C@H](O)[C@H]1O)C(=O)O.Cl.Cl` (stereo partly drawn) [Compound 17], which “Lysis following bacterial stress at 48 h (OD490 nm)” value (shortened to “Lysis following bacterial stress”) ([1]; 5 mg/mL) is on record?
Its value is 0.333 ± 0.003 OD490 nm.

And the “protective effect against bacterial stress (in words)” value ([1]; 5 mg/ml to 15 mg/ml)?
Its value is “protective effect on cells against bacterial stress”.

What about the “Lysis following bacterial stress” value ([1]; 10 mg/mL) of the same compound?
Its value is 0.293 ± 0.002 OD490 nm.

What about the “Lysis following bacterial stress” value ([1]; 15 mg/mL) of the same compound?
Its value is 0.270 ± 0.005 OD490 nm.

And the “% hydrolyzed” value ([2]; 2 eq NaOD, 2 h 30, D2O)?
Its value is 0%.

What about the “stability towards basic conditions (in words)” value ([2]; 2 to 8 eq NaOD, 2 h 30, 1H NMR) of the same compound?
The value was “absence of degradation”.

And the “% hydrolyzed” value ([2]; 3 eq NaOD, 2 h 30, D2O)?
Its value is 0%.

What about the “% hydrolyzed” value ([2]; 4 eq NaOD, 2 h 30, D2O) of the same compound?
Its value is 0%.

And the “% hydrolyzed” value ([2]; 5 eq NaOD, 2 h 30, D2O)?
Its value is 0%.

What about the “% hydrolyzed” value ([2]; 6 eq NaOD, 2 h 30, D2O) of the same compound?
Its value is 0%.

What about the “% hydrolyzed” value ([2]; 7 eq NaOD, 2 h 30, D2O) of the same compound?
The value was 0%.

And the “% hydrolyzed” value ([2]; 8 eq NaOD, 2 h 30, D2O)?
The value was 0%.

What about the “% hydrolyzed” value ([2]; Control, 0 eq NaOD) of the same compound?
Its value is 0%.

And the Percentage of viability ([3]; D 0)?
The Percentage of viability was 96.69 ± 1.85%.

What about the Percentage of viability ([3]; D 0, listed as compound 17) of the same compound?
Its Percentage of viability is 97%.

What about the Percentage of viability ([3]; D 3) of the same compound?
Its Percentage of viability is 91.03 ± 1.88%.

What about the Percentage of viability ([3]; D 4) of the same compound?
The Percentage of viability was 88.98 ± 2.48%.

And the Percentage of viability ([3]; D 5)?
The Percentage of viability was 86.65 ± 4.26%.

What about the Percentage of viability ([3]; D 6) of the same compound?
Its Percentage of viability is 85.53 ± 1.57%.

And the Percentage of viability ([3]; D 7)?
The Percentage of viability was 83.20 ± 3.72%.

What about the Percentage of viability ([3]; D 10) of the same compound?
Its Percentage of viability is 80.62 ± 3.72%.

And the Percentage of viability ([3]; D 12)?
Its Percentage of viability is 77.03 ± 2.02%.

What about the Percentage of viability ([3]; D 12, listed as compound 17) of the same compound?
Its Percentage of viability is 77%.

And the “preservative/protective effect on skin fibroblasts (in words)” value ([3]; starvation medium, 5 mg/ml, 12 days)?
Its value is “significant preservative/protective effect”.

— patent US10100088B2, “Glycopeptide derivatives for the preservation and protection of biological materials and microorganisms” (TFCHEM, priority 2014, dated 2018)
